Patent US20060167229A1, “Biologically active peptide conjugates” (priority 2002, published 2006)
Entries after “also recorded” stand apart in the source; their conditions may differ. Marks after values point to notes of the source that are not given here.

Columns and labels:
S180 sarcoma = assay: Growth of transplanted S180 sarcoma; format: in vivo, BALB/c mice; settings: controls: IL-2, IFN-γ 3 × 10^5 IU/kg, cyclophosphamide 20 mg/kg; saline 1.29 ± 0.50
Method: (§1) Intraperitoneal injection, once per day. […] Treatment of all groups with testing substance lasted for 30 days or until the animal died unless otherwise specified.
Stock S180 sarcoma cells were incubated in DMEM/F12 medium supplemented with 10% fetal bovine serum, 37° C., 5% CO2 for 72 hrs, then washed 3-4 times with Hank's solution at room temperature. Adjust the cell concentration to 1-2×10^9 per litre with Hank's solution. […] The mice were killed by cervical vertebra dislocation. Vigorously growing and non-disrupted tumor masses were harvested and washed clean with sterile saline. The tissue was dispersed in saline to a homogenous cell suspension, in a ratio of 1 g tissue to 4 ml saline. The sarcoma bearing mice model was prepared with an injection of 0.2 ml cell suspension through the armpit. Administration of test substance treatment started as described in section Method 1.
2.2 The Tumor Growth Inhibition Index was Calculated According to the Following Formula: Tumor growth inhibition index=(mean tumor weight of control group−mean tumor weight of treatment group)÷mean tumor weight of control group 3.

L1210 leukemia = assay: Survival of mice with transplanted L1210 leukemia; format: in vivo, DBA/2 mice; settings: controls: IL-2, IFN-γ 3 × 10^5 IU/kg, cyclophosphamide 20 mg/kg; saline 16.6 ± 5.6
Method: as §1
Stock L1210 cells were incubated in DMEM/F12 medium supplemented with 10% fetal bovine serum, 37° C./5% CO2 for 72 hrs, then washed 3-4 times with Hank's solution, and adjusted to […]. 0.1 ml of the cell suspension was implanted into the abdominal cavity of several healthy DBA mice for 6-8 days. The mice were then killed by cervical vertebra dislocation and their ascitic fluid collected aseptically. The cell concentration of the collected ascitic fluid was adjusted to 1×10^5 per ml with Hank's solution. 0.1 ml of the cell suspension was implanted into each of the testing animal and the survival data of the animals recorded. Treatment started in the testing animals as described in section Method 1. Mean survival day was obtained by the Kaplan-meier method in the Survival option of the SPSS software. If the animal survived longer than the experiment, the survival days was entered as the duration of the experiment. The survival index was calculated according to the following formula: Survival index=(mean survival days of treatment group−mean survival days of control group)÷mean survival days of control group 6. The Effect of Peptides on the Humoral Immunity of C57BL/6 Mice Bearing Transplanted B16 Melanoma and that on the Metastatic Potential of the Inoculated Melanoma Cells

thymus gland = assay: Immunity organ weight test, thymus gland index; format: in vivo, BALB/c mice; settings: for weight of thymus gland (thymus gland index), X ± SD (%): healthy mice, saline 0.12 ± 0.02
Method: (§2) One day after the last test substance administration (day 16), the liver, spleen, and thymus gland were separated and blotted dry with filter paper and weighed. The phagocytosis index α was calculated as below: α=(^3√{square root over ( )}K)(W÷WLS)
Thymus gland index (%)=(thymus weight/body weight)×100%

NK cell = NK cell cytotoxicity activity test (spleen cells of treated mice against YAC-1 target cells, MTT); format: in vivo, BALB/c mice
Method in brief: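 Mice (10 per group) dosed i.p. once daily for 15 days in saline; spleen cells harvested the next day. Splenocytes (4×10^6/ml) co-cultured with YAC-1 targets (1×10^5/ml), in triplicate per mouse. Viability by MTT (1 mg/ml, 4 h, 37 °C), read at OD570 against 630 nm.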

spleen = assay: Immunity organ weight test, spleen index; format: in vivo, BALB/c mice
Method: as §2
Spleen index (%)=(spleen weight/body weight)×100%

mononuclear phagocyte = assay: Carbon particle clearance test, phagocytosis function; format: in vivo, BALB/c mice; parameters: key to X ± SD (phagocytotic index): α = cube root of K × (body weight ÷ liver+spleen weight)
Method: On the next day after the last test substance administration (day 16), the mice were injected with […] body weight India ink (5 times dilution with normal saline) from the tail vein.
One minute and five minutes after Indian ink injection, 20 μl blood was obtained from the eye canthus with a heparinized tubing. The blood was mixed with 2 ml 0.1% w/v Na2CO3 and then OD680 nm obtained. The outline clear index K was calculated by the following formula: K=(lgA1−lgA2)÷(t2−t1)
as §2

[1] = tested on: Masugi nephritis rat model; assay: Masugi nephritis rat model; settings: for urine protein level: 24 h urine
anti-SRBC antibody = assay: Sheep Red Blood Cell (SRBC) hemolysis test, antibody formation; format: in vivo, BALB/c mice; settings: for anti-SRBC antibody formation, X ± SD (Unit): healthy mice, SRBC day 12 (IFN-γ, IL-2 3×10^5 IU/kg/day), saline 32 ± 7
Method in brief: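 Mice immunized intraperitoneally with 0.2 ml SRBC on day 12; serum taken on day 16, diluted 500-fold. Serum incubated with 2% SRBC and guinea pig complement 10 min at 37° C; released haemoglobin read at OD540 with Drabkin solution. Serum index = (sample OD540 ÷ reference OD540) × 500.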

[2] = statistically significant difference from saline in any of the dosage groups 0.5-500 μg/kg/day

Compound: O=P1(N(CCCl)CCCl)NCCCO1 (centres unmarked) [Cyclophosphamide, reference compound]
- Tumor weight (S180 sarcoma): 0.68 ± 0.32 g
- Survival days (L1210 leukemia): 24.0 ± 5.3 days

Compound: Phe Gln Gln Met (FQQM; printed: Phe Gln Gln Met) [CMS030]
- weight of thymus gland (thymus gland index), X ± SD (%) (thymus gland; peptide 0.5 μg/kg/day i.p. 15 days (IFN-γ, IL-2 3×10^5 IU/kg/day)): 0.24 ± 0.05*^@^ %
- weight of thymus gland (thymus gland index), X ± SD (%) (thymus gland; peptide 5 μg/kg/day i.p. 15 days (IFN-γ, IL-2 3×10^5 IU/kg/day)): 0.23 ± 0.07*^ %
- weight of thymus gland (thymus gland index), X ± SD (%) (thymus gland; peptide 50 μg/kg/day i.p. 15 days (IFN-γ, IL-2 3×10^5 IU/kg/day)): 0.25 ± 0.04*^@^ %
- weight of thymus gland (thymus gland index), X ± SD (%) (thymus gland; peptide 500 μg/kg/day i.p. 15 days (IFN-γ, IL-2 3×10^5 IU/kg/day)): 0.30 ± 0.03*^@^ %
- effect on the weight of the thymus gland (summary) (thymus gland; [2]): increase
- NK cell cytotoxic activity, X ± SD (%) (NK cell; healthy mice, peptide 500 μg/kg/day i.p. 15 days (IFN-γ, IL-2 3×10^5 IU/kg/day), saline 63 ± 9): 91 ± 5*^@^ %
- effect on the cytotoxic activity of NK cells (summary) (NK cell; [2]): increase
- weight of spleen (spleen index), X ± SD (%) (spleen; Table 30, healthy mice, peptide 5 μg/kg/day i.p. 15 days, saline 0.53 ± 0.05): 0.64 ± 0.09 %
- effect on the weight of the spleen (summary) (spleen; [2]): increase
- X ± SD (phagocytotic index) (mononuclear phagocyte; healthy mice, peptide 50 μg/kg/day i.p. 15 days (IFN-γ, IL-2 3×10^5 IU/kg/day), saline 5.1 ± 0.6): 6.3 ± 0.5
- effect on the phagocytotic activity of mononuclear phagocyte (summary) (mononuclear phagocyte; [2]): enhance
- urine protein level ([1]; Week 1, peptides 50 μg/kg/day, hydrocortisone 3.3 mg/kg/day i.p., placebo 22.9 ± 22, normal 1.7 ± 1.3): 5.4 ± 3.4 mg
- urine protein level ([1]; Week 2, peptides 50 μg/kg/day i.p., hydrocortisone dose halved after first week, placebo 17.2 ± 14.5, normal 2.3 ± 1.1): 9.5 ± 16.2 mg
- urine protein level ([1]; Week 3, peptides 50 μg/kg/day i.p., hydrocortisone dose halved after first week, placebo 20.2 ± 29.0, normal 0.4 ± 0.2): 2.4 ± 1.5 mg
- spleen index ([1]; after three weeks of treatment, peptides 50 μg/kg/day i.p., placebo 4.8 ± 1.1, normal 2.4 ± 0.1): 3.0 ± 0.5 ×10^−3
- Serum creatinine level ([1]; after three weeks of treatment, peptides 50 μg/kg/day i.p., placebo 265 ± 212, normal 80 ± 1): 93 ± 1 µmol/L
- renal pathological microscopic examination ([1]; peptides 50 μg/kg/day i.p. 3 weeks, 6 heaviest kidneys per group): all pathological parameters of all rats were normal
- anti-SRBC antibody formation, X ± SD (Unit) (anti-SRBC antibody; peptide 0.5 μg/kg/day i.p. 15 days): 19 ± 7 Unit
- anti-SRBC antibody formation, X ± SD (Unit) (anti-SRBC antibody; peptide 5 μg/kg/day i.p. 15 days): 158 ± 37*^@^ Unit
- anti-SRBC antibody formation, X ± SD (Unit) (anti-SRBC antibody; peptide 50 μg/kg/day i.p. 15 days): 141 ± 33*^@^ Unit
- effect on the synthesis of anti-SRBC antibody upon the antigenic challenge (summary) (anti-SRBC antibody; [2]): enhance; also recorded: inhibit
